Settings: Gas, Buoyancy - hydrostatic balance with magnetic suspension - one sinker

C=C(F)C(F)(F)F [2,3,3,3-tetrafluoro-1-propene]
Settings | mass density [kg/m3]
252.64 K, 70 kPa | 3.88
252.64 K, 110 kPa | 6.265
252.64 K, 124 kPa | 7.097
262.07 K, 81 kPa | 4.341
262.08 K, 113 kPa | 6.19
262.08 K, 136 kPa | 7.456
262.08 K, 157 kPa | 8.696
262.08 K, 169 kPa | 9.424
270.18 K, 105 kPa | 5.505
270.18 K, 132 kPa | 6.952
270.18 K, 172 kPa | 9.215
270.18 K, 232 kPa | 12.71
270.19 K, 256 kPa | 14.125
279.64 K, 75 kPa | 3.732
279.65 K, 118 kPa | 5.957
279.65 K, 168 kPa | 8.6
279.65 K, 219 kPa | 11.398
279.66 K, 261 kPa | 13.822
279.66 K, 302 kPa | 16.231
279.67 K, 352 kPa | 19.153
289.17 K, 279 kPa | 14.228
289.17 K, 433 kPa | 23.141
289.18 K, 186 kPa | 9.245
289.18 K, 223 kPa | 11.205
289.18 K, 344 kPa | 17.869
289.18 K, 502 kPa | 27.513
289.19 K, 84 kPa | 4.052
289.19 K, 143 kPa | 7.017
298.63 K, 249 kPa | 12.098
298.63 K, 312 kPa | 15.415
298.63 K, 363 kPa | 18.154
298.63 K, 419 kPa | 21.272
298.63 K, 599 kPa | 32.147
298.63 K, 647 kPa | 35.336
298.64 K, 134 kPa | 6.319
298.64 K, 204 kPa | 9.779
308.12 K, 125 kPa | 5.711
308.12 K, 242 kPa | 11.284
308.13 K, 188 kPa | 8.693
308.13 K, 282 kPa | 13.311
308.13 K, 367 kPa | 17.655
308.13 K, 460 kPa | 22.624
308.14 K, 517 kPa | 25.797
308.14 K, 551 kPa | 27.714
308.14 K, 608 kPa | 31.08
308.14 K, 741 kPa | 39.419
317.63 K, 418 kPa | 19.56
317.63 K, 514 kPa | 24.547
317.63 K, 613 kPa | 30.022
317.63 K, 892 kPa | 46.934
317.64 K, 202 kPa | 9.037
317.64 K, 351 kPa | 16.204
317.66 K, 116 kPa | 5.083
317.66 K, 166 kPa | 7.365
327.25 K, 522 kPa | 23.936
327.25 K, 597 kPa | 27.809
327.25 K, 825 kPa | 40.447
327.25 K, 1152 kPa | 61.545
327.26 K, 299 kPa | 13.167
327.26 K, 372 kPa | 16.57
327.26 K, 463 kPa | 20.996
327.27 K, 97 kPa | 4.113
327.27 K, 153 kPa | 6.549
327.27 K, 235 kPa | 10.227
336.67 K, 110 kPa | 4.549
336.67 K, 321 kPa | 13.728
336.67 K, 424 kPa | 18.45
336.67 K, 501 kPa | 22.051
336.67 K, 618 kPa | 27.852
336.67 K, 667 kPa | 30.331
336.67 K, 693 kPa | 31.586
336.67 K, 873 kPa | 41.236
336.67 K, 1254 kPa | 64.685
336.67 K, 1683 kPa | 100.038
336.68 K, 237 kPa | 10.013
345.74 K, 1557 kPa | 81.658
345.74 K, 1910 kPa | 112.152
345.75 K, 517 kPa | 21.914
345.75 K, 739 kPa | 32.609
345.75 K, 886 kPa | 40.193
345.75 K, 1229 kPa | 59.662
345.76 K, 145 kPa | 5.863
345.76 K, 305 kPa | 12.598

— the NIST ThermoML archive (doi:10.1021/acs.jced.7b00427)
